This is an account of results in PubChem BioAssay (NCI).

Assay in all cases: NCI anticancer screen, dose series, 48 h
Assay [1] relates to OVCAR-8 ovarian.
The test system of assay [2] is SK-MEL-28 melanoma.
Assay [3] relates to SF-268 CNS.
The test system of assay [4] is OVCAR-3 ovarian.
The subject of assay [5] is NCI-H460 lung.
The subject of assay [6] is COLO 205 colon.
For assay [7], the system named is SN12C renal.
The test system of assay [8] is UO-31 renal.
Assay [9] has as its system U251 CNS.
Assay [10] deals with K-562 leukemia.

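These data come from cells grown in 96-well plates and exposed to compound for 48 hours at five concentrations. GI50 is the concentration that inhibits growth by half. TGI denotes the concentration required for complete inhibition of growth.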

For `CC(/C=C/c1ccc([N+](=O)[O-])o1)=N/N1CC(CN2CCOCC2)OC1=O` (stereo not given), the TGI in assay [1] was 35.3 µM; in assay [2], 38.2 µM; in [3], 51.9 µM; in [4], 42.8 µM; in assay [5] it was 46.9 µM; in assay [6], 29.8 µM. Besides, the TGI in assay [7] is > 100 µM; in assay [8], 45.4 µM; in [9] it was > 100 µM; in assay [10], 61.1 µM.
As to `CCOc1ccc(/C=C/[N+](=O)[O-])cc1`, the GI50 in [1] is 13.2 µM; in assay [2] it was 16.6 µM; in [3], 14.1 µM; in [4], 4.53 µM; in assay [5], 26.8 µM; in assay [6] it was 4.71 µM. Also, the GI50 in assay [7] was 14.7 µM; in [8], 13.8 µM; in assay [9] it was 3.1 µM; in [10], 4.52 µM. Besides, the TGI was 27.1 µM in [1]; 30.9 µM in [2]; 28.6 µM in assay [3]; 15.8 µM in assay [4]; > 100 µM in assay [5]; 15.5 µM in assay [6]. Also, the TGI in assay [7] was 28.3 µM; in assay [8], 28.8 µM; in assay [9] it was 8.83 µM; in assay [10], > 100 µM.
On to `CC(C)=CC(=O)OC1C2C(C)C(=O)OC2C(O)C(C)C2C=CC(=O)C21C` (stereo not given), for which the TGI in assay [1] amounted to 9.59 µM; in assay [2], 3.82 µM; in assay [3], 8.42 µM; in assay [4] it was 6.92 µM; in [5], 6.33 µM; in assay [6], 5.83 µM. For the same compound, the TGI in assay [7] stood at 8.19 µM; in [8], 10.5 µM; in [9], 8.3 µM; in assay [10], 25.3 µM.
As to `O=C(Nc1ccc(Cl)cc1)/C(Cc1cccc[n+]1[O-])=N\Nc1ccc([N+](=O)[O-])cc1[N+](=O)[O-]`, the TGI in assay [1], in assay [2], in assay [3], in [4], in [5] and in [6] was > 100 µM throughout. The TGI in assay [7], in assay [8], in [9] and in [10] was > 100 µM throughout.
`Cc1cccc2c(N)c3cccc(C(=O)NCCN(C)C)c3nc12`: the TGI in [1] came out at 2.01 µM; in assay [2], 0.482 µM; in assay [3], 2.41 µM; in assay [4], 0.929 µM; in assay [5] it was 0.0262 µM; in assay [6] it was 0.229 µM. Besides, the TGI in [7] came out at 0.457 µM; in assay [8], 0.81 µM; in [9] it was 0.604 µM; in [10], 0.543 µM.
With `COc1ccc(/C=N/NC(=O)NCCCN(C)C)cc1`, the TGI in [1], in assay [2], in assay [3], in assay [4], in assay [5] and in assay [7] was > 100 µM each time. In addition, the TGI in assay [8], in [9] and in [10] was > 100 µM throughout.
For `O=C1Nc2ccccc2Nc2nc3cccccc-3c21`, the TGI in assay [1], in assay [2], in assay [3], in [4], in assay [5] and in assay [6] was > 100 µM in each case. Also, the TGI in assay [7], in assay [8], in assay [9] and in assay [10] was > 100 µM in each case.
Regarding `CN1CCN(Cc2ccc(NC(=O)c3ccc(C#N)c(C#Cc4cnc(N)c5ncccc45)c3)cc2C(F)(F)F)CC1`, the GI50 is 3.34 µM in assay [4], 4.02 µM in assay [6], 2.19 µM in assay [7] and 1.6 µM in [8]. Moreover, the TGI in [4] was 10.4 µM; in [6], > 100 µM; in assay [7] it was 5.43 µM; in [8], 2.99 µM.
With `c1ccc2c(c1)nc1n2CSC1`, the TGI in assay [1], in assay [2], in assay [3], in assay [4], in [5] and in [6] was > 100 µM each time. The TGI in assay [7], in assay [8], in assay [9] and in [10] was > 100 µM in each case.
Turning to `CCOP(=O)(OCC)C(Cc1ccc(OC)c(OC)c1)N=C(c1ccccc1)c1ccccc1` (stereo not given), the TGI in assay [1] is > 100 µM; in assay [2] it was > 100 µM; in [3], > 100 µM; in assay [4], > 100 µM; in [5], > 100 µM; in [6], 38.1 µM. In addition, the TGI is > 100 µM in assay [7], > 100 µM in [8], > 100 µM in assay [9] and 22.4 µM in [10].
Regarding `COc1c2c(cc3c(CCc4ccccc4)cc(=O)oc13)CCC(C)(C)O2`, the TGI in assay [1], in assay [2], in assay [3], in [4], in assay [5] and in assay [6] was > 100 µM throughout. The TGI in assay [7], in assay [8], in assay [9] and in assay [10] was > 100 µM throughout.
As for `CC1(C)CCc2cc3c(-c4ccccc4)cc(=O)oc3cc2O1`, the TGI in [1], in [2], in [3], in assay [4], in assay [5] and in assay [6] was > 100 µM each time. Besides, the TGI in assay [7], in assay [8], in assay [9] and in assay [10] was > 100 µM throughout.
Regarding `Cc1nc2ccccc2c(=O)n1CC(=O)O`, the TGI in assay [1], in assay [2], in assay [3], in assay [4], in assay [5] and in assay [6] was > 100 µM throughout. The TGI in assay [7], in [8], in assay [9] and in assay [10] was > 100 µM each time.
For the compound `CN1C2C=C(c3ccccc3)CC1CC2` (stereo not given), the TGI in assay [1], in assay [2], in [3], in assay [4], in [5] and in assay [6] was > 100 µM throughout. Moreover, the TGI in assay [7], in assay [8], in assay [9] and in [10] was > 100 µM throughout.
Regarding `CCCCN(CCCC)CCCCNc1c(C)cnc2cc(Cl)ccc12`, the TGI is > 100 µM in [1]; 33.2 µM in assay [2]; 85.3 µM in assay [3]; > 100 µM in assay [4]; > 100 µM in [5]; > 100 µM in assay [6]. The TGI in assay [7] was > 100 µM; in assay [8], 25.1 µM; in [9] it was > 100 µM; in assay [10], 43.3 µM.
Regarding `O=C(Nc1nc2ccc([N+](=O)[O-])cc2[n+]([O-])n1)C(F)(F)F`, the TGI in [1], in assay [2], in [3], in [5], in assay [6] and in [7] was > 100 µM in each case. Further, the TGI was > 100 µM in [8], > 100 µM in [9] and 79.3 µM in assay [10].
Consider `CC(C)=CCc1c(C)cc2cc3c(c(O)c2c1O)C(O)=CC(=O)C3(CC=C(C)C)C/C=C(\C)CO` (stereo not given), for which the TGI in assay [1] turned out to be 76.8 µM; in assay [2] it was 86.8 µM; in assay [3], 85.4 µM; in [4], 76.3 µM; in assay [5], 98.9 µM; in assay [6] it was 80.1 µM. The TGI in [7] is 76.8 µM; in assay [8] it was 64.4 µM; in assay [9], 70 µM; in assay [10], 90.9 µM.
As for `CCOc1ccc2c(ccc(/C=C\c3cc(C)c4cccnc4c3O)[n+]2C)c1`, the TGI stood at 38.8 µM in assay [1]; 14.6 µM in assay [2]; 28.3 µM in assay [3]; 2 µM in assay [4]; 10.2 µM in [5]; 5.82 µM in assay [6]. In addition, the TGI is 15.5 µM in [7], 35.1 µM in [8], 4.53 µM in assay [9] and 26.8 µM in assay [10].
In the case of `Cc1ccc(S(=O)(=O)Oc2cc(S(=O)(=O)O)cc3cc(S(=O)(=O)O)cc(N)c23)cc1`, the TGI in assay [1], in assay [2], in assay [3], in [4], in assay [5] and in assay [6] was > 100 µM in each case. For the same compound, the TGI in assay [7], in assay [8], in [9] and in assay [10] was > 100 µM in each case.
On to `COc1cc2c3c(n(CCN(C)C)c(=O)c2cc1OC)-c1cc2c(cc1C3=O)OCO2`, for which the GI50 is 1.4 µM in assay [1]; > 28.4 µM in [2]; 0.677 µM in assay [3]; 8.31 µM in assay [4]; 0.157 µM in assay [5]; 4.38 µM in assay [7]. Also, the GI50 was 9.3 µM in [8], 2.64 µM in assay [9] and 2.53 µM in [10]. Besides, the TGI in [1] was > 100 µM; in assay [2] it was > 100 µM; in [3], > 100 µM; in assay [4], 38.4 µM; in assay [5], > 100 µM; in assay [6], > 100 µM. Also, the TGI in assay [7] was > 100 µM; in assay [8], > 100 µM; in [9], > 100 µM; in assay [10] it was 97.4 µM.
As to `Nc1ncnc2c1ncn2C1CCC(CO)O1` (stereo not given), the TGI in assay [1] is > 79.4 µM; in assay [2], > 68.2 µM; in assay [3] it was > 87.7 µM; in assay [4] it was > 100 µM; in [5] it was > 100 µM; in [6], > 100 µM. Besides, the TGI in assay [7], in [8], in [9] and in assay [10] was > 100 µM in each case.
Turning to `CCN(CC)CCCC(Nc1c2ccc(Cl)cc2nc2ccc(OC)cc12)c1ccc(F)cc1` (stereo not given), the GI50 in [1] was 3.27 µM; in assay [2], 1.71 µM; in [3], 2.28 µM; in assay [4], 2.16 µM; in assay [5] it was 1.91 µM; in assay [6] it was 2.05 µM. Also, the GI50 in assay [7] was 2.03 µM; in assay [8], 1.56 µM; in [9] it was 1.92 µM; in assay [10], 2.18 µM. Also, the TGI in assay [1] worked out at 10.4 µM; in [2] it was 3.2 µM; in [3], 5.33 µM; in assay [4], 4.44 µM; in assay [5] it was 3.84 µM; in assay [6], 4.53 µM. For the same compound, the TGI in assay [7] was found to be 4.68 µM; in assay [8], 3.15 µM; in assay [9], 3.88 µM; in assay [10] it was 4.26 µM.
Consider `C[C@]12C=CC(=O)C=C1CC[C@@H]1[C@@H]2C(=O)C[C@@]2(C)[C@H]1CC[C@]2(O)C(=O)CO`, for which the TGI in assay [1], in [2], in [3], in assay [4], in assay [5] and in [6] was > 100 µM each time. Also, the TGI in assay [7], in assay [8], in [9] and in assay [10] was > 100 µM throughout.
Turning to `[C-]#[O+].[Cl][Sn]([Cl])[Cl].[Cl][Sn]([Cl])[Cl].[Pt].c1ccncc1`, the TGI in [1], in [2], in assay [3], in assay [4], in assay [5] and in assay [6] was > 100 µM throughout. Besides, the TGI in assay [7], in [8], in [9] and in assay [10] was > 100 µM throughout.
